Measurements: publication PMC6921279 (Frontiers in Endocrinology, 2019)

Legend:
[1] = system: CRF1R-mediated Akt phosphorylation; assay: CRF-induced Akt phosphorylation at Ser473 in COS-7 cells expressing HA-CRF1R; assay type: cell-based, human; details: wortmannin 100 nM, 30 min pretreatment; 100 nM CRF, 5 min
Procedure: Plasmid pRK5 encoding the carboxyl terminus of βARK that contains its βγ-binding domain (ct-βARK) was kindly provided by Dr. W. Koch (Center for Translational Medicine, Temple University, Philadelphia, PA), which is a scavenger for G protein βγ subunits ([25]). […] Plasmid pUSEamp encoding dominant-negative Akt-K179M (dn-Akt) was from Upstate Biotechnology (Lake Placid, NY).
(§1) COS-7 cells (from the American Type Culture Collection) were cultured at 37°C in a humidified atmosphere of 95% air, 5% CO2, in DMEM supplemented with 10% FBS, 100 μg/ml streptomycin, and 100 units/ml penicillin (COS-7 growth medium). Transient transfections were performed using LipofectAMINE (Life Technologies: Gaithersburg, MD) as described previously ([27]). Cells were seeded at 8 × 10^5 cells/10-cm dish in COS-7 medium and cultured for 3 days before transfection. COS-7 cells were transfected in 5 ml/dish OptiMEM containing 10 μg/ml LipofectAMINE with empty vector, pcDNA3 encoding the HA-CRF1R or the HA-CRF1R-Δ386 mutant. […] After replacing the transfection medium with fresh growth medium, transfected COS-7 cells were cultured for 1 day. Subsequently, cells were re-seeded in 6-well plates and cultured for an additional day prior to the experiment.
The protocols for measuring total and phosphorylated ERK1/2, c-Src, PYK2, Akt, and EGFR have been previously published ([28], [29]). After cells were cultured to 60–70% confluence, they were serum-deprived for 24 h. On the day of the experiment, cells were treated with the indicated ligands and inhibitors. […] After treatment, cells were placed on ice, the media was aspirated, and the cells were washed twice with ice-cold PBS and lysed in 100 μl of Laemmli sample buffer 1X. The lysates were briefly sonicated, heated at 95°C for 5 min, and centrifuged for 5 min at 14,000 rpm. Resulting supernatants were loaded in separate lanes of a 10% SDS-PAGE gels and electrophoresed. Next, Western transfer on to PDVF membranes was completed. The Western blots were then probed with specific antibodies targeting phosphorylated and non-phosphorylated forms of ERK1/2, c-Src, PYK2, Akt, and EGFR for primary immunodetection. […] The labeled bands were quantified using the Quantity One 4.6.3 software program (Bio-Rad).
Figure 7 CRF mediates Akt activation. […] Total cell lysates were separated by SDS-PAGE and analyzed by immunoblotting with anti-p-Akt Ser^473, as described in Materials and Methods. Akt phosphorylation was quantitated by densitometry, and mean values were plotted from three to five independent experiments. […]

[2] = system: EGF-stimulated Akt phosphorylation; assay: Modulation of EGF-stimulated Akt phosphorylation in COS-7 cells; assay type: cell-based; details: wortmannin 100 nM, 30 min pretreatment; 10 ng/ml EGF, 10 min
Procedure: as §1, with “Subsequently, cells were re-seeded in 6-well plates and cultured for an additional day prior to the experiment.” left out
The protocols for measuring total and phosphorylated ERK1/2, c-Src, PYK2, Akt, and EGFR have been previously published ([28], [29]). […] The labeled bands were quantified using the Quantity One 4.6.3 software program (Bio-Rad).
Figure 8 Involvement of the PI3K pathway in CRF-stimulated ERK1/2 phosphorylation. […] Total cell lysates were separated by SDS-PAGE and analyzed by immunoblotting with anti-p-Akt Ser^473 (A) or anti-p-ERK1/2 Thr^202/Tyr^204 (A–C), as described in Materials and Methods. Akt and ERK1/2 phosphorylation were quantitated by densitometry, and mean values were plotted from three to five independent experiments. […]

COC[C@H]1OC(=O)c2coc3c2[C@@]1(C)C1=C(C3=O)[C@@H]2CCC(=O)[C@@]2(C)C[C@H]1OC(C)=O [wortmannin]
effect on CRF1R-mediated Akt signaling activation [1]: abolished CRF1R-mediated Akt signaling activation
effect on EGF-stimulated Akt phosphorylation [2]: abolished the stimulatory action of EGF on Akt
